According to publication PMC8033486 (Frontiers in Pharmacology, 2021):
Counter-ions that a name gives are not always drawn. Like-named read-outs stand apart in the source and are kept apart here. *1 amine or outer side, *2 acyl side, *3 side chain or, on linkers, in order; H or OH if unused. Where a SMILES comes first, the peptide text is derived from it. Bridges are numbered along the chain shown (N, C = ends). [ ]: non-standard residue; d: D form. The star is where a group is joined. X1 = CC[C@H](C)[C@@H](N[*:1])[C@@H](O)CC(=O)O[C@H](C(=O)[C@H](C)C(=O)[*:2])C(C)C; NMeY = CN[C@@H](Cc1ccc(O)cc1)C(=O)O; dNMeL = CN[C@H](CC(C)C)C(=O)O; Pyruvoyl = CC(=O)C(=O)*; Cbz = O=C(OCc1ccccc1)*

Tests used:
SARS-CoV-2 = experiment: microbe, parasite or virus in culture; type: cell-based
in vitro = conditions: African green monkey
[1] = CC50, Vero E6, no virus, 3 days
[2] = Vero E6, cytopathic effect 3 days after infection, repeated experiments
[3] = Severe acute respiratory syndrome coronavirus 2, Vero C1008, Vero E6, one representative experiment with two replicates, when combined, each drug at the same concentration, read-out: IC50 value of the particular graph
[4] = Severe acute respiratory syndrome coronavirus 2, Vero C1008, 72 h, read-out: IC50 (Mean +/- SD)

| Compound | Inhibition of SARS-CoV-2-induced cytopathic effect, result in words (SARS-CoV-2; Vero E6) | CC50 at 3 days (in vitro; [1]) [µM] | other results |
| --- | --- | --- | --- |
| interferon-γ [IFN stimulated antivirus proteins; granulomatous disease] | displayed antiviral activity |  |  |
| COc1cc(C2Oc3cc([C@H]4Oc5cc(O)cc(O)c5C(=O)[C@@H]4O)ccc3OC2CO)ccc1O (stereo partly shown) [Silibinin] |  | > 20 |  |
| Nc1nc(=O)n([C@@H]2CS[C@H](CO)O2)cc1F [Emtricitabine] | failed to show any antiviral effect | > 100 | IC50 (Mean +/- SD) (SARS-CoV-2; [2]): Not Active |
| CCS(=O)(=O)N1CC(CC#N)(n2cc(-c3ncnc4[nH]ccc34)cn2)C1 [Baricitinib] |  |  | CC50 (in vitro): > 85 µM |
| CCN(CC)CCCC(C)Nc1c2ccc(Cl)cc2nc2ccc(OC)cc12 (stereo not shown) [Quinacrine dihydrochloride] |  | > 6 |  |
| CC(=O)N[C@H]1C([C@H](O)[C@H](O)CO)O[C@@](O[C@@H]2C(O)[C@H](O[C@@H]3C(CO)OC(O)C(O)[C@H]3O)OC(CO)[C@@H]2O)(C(=O)[O-])C[C@H]1O.[Na+] (stereo partly shown) [3’ Sialyllactose Na Salt] | not able to reduce viral-induced cytopathic effect |  |  |
| CCC(CC)COC(=O)[C@H](C)N[P@](=O)(OC[C@H]1O[C@@](C#N)(c2ccc3c(N)ncnn23)[C@H](O)[C@@H]1O)Oc1ccccc1 [Remdesivir] |  |  | IC50 (SARS-CoV-2; [3]): 1.2 µM; IC50 (SARS-CoV-2; Vero E6, cytopathic effect 3 days after infection, repeated experiments, read-out: IC50 (Mean +/- SD)): < 10 µM; CC50 (in vitro): > 85 µM |
| CC(C)CN(C[C@@H](O)[C@H](Cc1ccccc1)NC(=O)O[C@H]1CCOC1)S(=O)(=O)c1ccc(N)cc1 [Amprenavir] | exhibited activity at the non-toxic concentration of 100 µM |  | CC50 at 3 days (in vitro; CC50): > 100 µM |
| CC(C)OC(=O)OCOP(=O)(CO[C@H](C)Cn1cnc2c(N)ncnc21)OCOC(=O)OC(C)C [Tenofovir disoproxil fumarate] | failed to show any antiviral effect |  | CC50 (in vitro): > 100 µM |
| OC(c1cc(C(F)(F)F)nc2c(C(F)(F)F)cccc12)C1CCCCN1 (stereo not shown) [Mefloquine hydrochloride] |  | > 100 |  |
| CN(C)[C@@H]1C(O)=C(C(N)=O)C(=O)[C@@]2(O)C(O)=C3C(=O)c4c(O)c(NC(=O)CN5CCCC5)cc(F)c4C[C@H]3C[C@@H]12 [Eravacycline] |  | > 4 |  |
| CC(C)(C)NC(=O)N[C@H](C(=O)N1C[C@H]2[C@@H]([C@H]1C(=O)NC(CC1CCC1)C(=O)C(N)=O)C2(C)C)C(C)(C)C (stereo partly shown) [Boceprevir] |  |  | CC50 at 3 days (in vitro; CC50): > 100 µM |
| Methyl-ß-cyclodextrin | abrogate SARS-CoV-2 induced cytopathic effect |  | IC50 (Mean +/- SD) (SARS-CoV-2): active at 1000 |
| N#Cc1ccccc1-c1cc(-c2ccccn2)cn(-c2ccccc2)c1=O [Perampanel] |  |  | IC50 (Mean +/- SD) (SARS-CoV-2): Not Active |
| CC(C)[C@H](NC(=O)OCc1ccccc1)C(=O)N[C@H](C=O)Cc1ccccc1 [MDL 28170] (Cbz-Val-Phe-aldehyde) | activity in the nanomolar range |  | IC50 (SARS-CoV-2; [4]): 0.14 µM; IC50 (SARS-CoV-2; Severe acute respiratory syndrome coronavirus 2, Vero C1008, read-out: IC50 value of the particular graph, Vero E6, one representative experiment with two replicates, when combined, each drug at the same concentration): 0.2 µM; CC50 (in vitro): > 87 µM |
| C[C@H]1c2cccc(O)c2C(=O)C2=C(O)[C@]3(O)C(=O)C(C(N)=O)=C(O)[C@@H](N(C)C)[C@@H]3[C@@H](O)[C@@H]21 [Doxycycline] |  | > 100 |  |
| Nc1ncnc2c([C@@H]3N[C@H](CO)[C@@H](O)[C@H]3O)c[nH]c12 [Galdesivir] | no antiviral effect |  | IC50 (Mean +/- SD) (SARS-CoV-2): Not Active |
| CC[C@H](C)[C@H]1NC(=O)[C@@H](NC(=O)[C@@H](CC(C)C)N(C)C(=O)[C@@H]2CCCN2C(=O)C(C)=O)[C@@H](C)OC(=O)[C@H](Cc2ccc(OC)cc2)N(C)C(=O)[C@@H]2CCCN2C(=O)[C@H](CC(C)C)NC(=O)[C@@H](C)C(=O)[C@H](C(C)C)OC(=O)C[C@@H]1O [Plitidepsin] (Pyruvoyl-P[dNMeL]T[X1]LP[NMeY](Me); ester 3-C) | always in nM concentrations |  | IC50 (SARS-CoV-2; [4]): 0.06 µM; IC50 (SARS-CoV-2; [3]): 0.05 µM; CC50 (in vitro): > 0.1 µM |
| CCC[C@@]1(CCc2ccccc2)CC(O)=C([C@H](CC)c2cccc(NS(=O)(=O)c3ccc(C(F)(F)F)cn3)c2)C(=O)O1 [Tipranavir] | inhibited SARS-CoV-2-induced cytopathic effect at the non-toxic concentration of 20 μM | > 70 |  |
| CC(=O)N[C@@H](CS)C(=O)O [N-Acetil cystein] |  |  | IC50 (Mean +/- SD) (SARS-CoV-2): Not Active |
| CN(C)CCCN1c2ccccc2Sc2ccc(Cl)cc21 [Chlorpromazine] | we did not find any prominent effect | > 18 |  |
| COc1c(O[C@@H]2O[C@H](CO)[C@@H](O)[C@H](O)[C@H]2O)cc2c(c1OC)-c1ccc(SC)c(=O)cc1[C@@H](NC(C)=O)CC2 [Thiocolchicoside] |  |  | IC50 (Mean +/- SD) (SARS-CoV-2): Not Active |
| CCOC(=O)C1=C(CN2CCOCC2)NC(c2nccs2)=NC1c1ccc(F)cc1Br (stereo not shown) [Morphothiadine] |  |  | IC50 (Mean +/- SD) (SARS-CoV-2): Not Active |
| NC(=O)c1nc(F)c[nH]c1=O [Favipiravir] | only partial inhibitory activity at the non-toxic concentration of 100 µM |  | CC50 at 3 days (in vitro; CC50): > 100 µM |

| Compound | Inhibition of SARS-CoV-2-induced cytopathic effect, result in words (SARS-CoV-2; Vero E6) | CC50 at 3 days (in vitro; [1]) [µM] | other results |
| --- | --- | --- | --- |
| Cc1c(O)cccc1C(=O)N[C@@H](CSc1ccccc1)[C@H](O)CN1C[C@H]2CCCC[C@H]2C[C@H]1C(=O)NC(C)(C)C [Nelfinavir mesylate hydrate] |  | > 25 | IC50 (SARS-CoV-2; Severe acute respiratory syndrome coronavirus 2, Vero C1008, 72 h, Vero E6, cytopathic effect 3 days after infection, repeated experiments, read-out: IC50 (Mean +/- SD)): < 10 µM; IC50 (SARS-CoV-2; [3]): 1.4 µM |
| OC(Cn1cncn1)(Cn1cncn1)c1ccc(F)cc1F [Fluconazol] |  | > 100 |  |
| CC(C)CN(C[C@@H](O)[C@H](Cc1ccccc1)NC(=O)O[C@H]1CO[C@H]2OCC[C@H]21)S(=O)(=O)c1ccc(N)cc1 [Darunavir] |  |  | IC50 (Mean +/- SD) (SARS-CoV-2): partially active at 100 |
| NC12CC3CC(CC(C3)C1)C2 [Amantadine] | only a partial inhibition at 100 μM | > 100 |  |
| C[C@@H]1CCN(C(=O)CC#N)C[C@@H]1N(C)c1ncnc2[nH]ccc12 [Tofacitinib] | failed to protected Vero E6 cells from SARS-CoV-2 induced cytopathic effect | > 100 |  |
| CN(C)C(=O)c1cc2cnc(Nc3ccc(N4CCNCC4)cn3)nc2n1C1CCCC1 [Ribociclib] |  | > 20 | IC50 (Mean +/- SD) (SARS-CoV-2): Not Active |
| Cc1cccc(C)c1OCC(=O)N[C@@H](Cc1ccccc1)[C@@H](O)C[C@H](Cc1ccccc1)NC(=O)[C@H](C(C)C)N1CCCNC1=O [Lopinavir] | inhibited SARS-CoV-2-induced cytopathic effect at the non-toxic concentration of 20 μM | > 87 |  |
| NC(N)=Nc1nc(CSCCC(N)=NS(N)(=O)=O)cs1 [Famotidine] |  | > 100 | IC50 (Mean +/- SD) (SARS-CoV-2; [2]): Not Active |
| CCOC(=O)Cn1cccc1-c1nc(-c2ccc(OC)cc2)c(-c2ccc(OC)cc2)s1 [Pamicogrel] |  |  | CC50 at 3 days (in vitro; CC50): 6.4 µM |
| CCCCOc1nc(N)c2c(n1)N(Cc1cccc(CN3CCCC3)c1)CC(=O)N2 [Vesatolimod] | not able to protect from the viral-induced cytopathic effect | > 20 |  |
| O=C(O)c1nn(Cc2ccc(Cl)cc2Cl)c2ccccc12 [Diclondazolic acid (Lonidamine), Diclondazolic acid] |  |  | IC50 (Mean +/- SD) (SARS-CoV-2): Not Active |
| Laflunimus Sodium Salt |  |  | IC50 (Mean +/- SD) (SARS-CoV-2): Not Active |
| O=C(Nc1ccc([N+](=O)[O-])cc1Cl)c1cc(Cl)ccc1O [Niclosamide] | failed to protected Vero E6 cells from SARS-CoV-2 induced cytopathic effect | > 9 |  |
| CC(C)OC(=O)[C@H](C)N[P@](=O)(OC[C@H]1O[C@@H](n2ccc(=O)[nH]c2=O)[C@](C)(F)[C@@H]1O)Oc1ccccc1 [Sofosbuvir] |  |  | IC50 (Mean +/- SD) (SARS-CoV-2): Not Active; CC50 (in vitro): > 100 µM |
| CC(C)OC(=O)[C@H](C)N[P@](=O)(CO[C@H](C)Cn1cnc2c(N)ncnc21)Oc1ccccc1 [Tenofovir Alafenamide] |  |  | IC50 (Mean +/- SD) (SARS-CoV-2): Not Active; Inhibition of SARS-CoV-2-induced cytopathic effect, result in words (SARS-CoV-2): failed to show any antiviral effect; CC50 (in vitro): > 100 µM |
| COC[C@H]1C[C@@H](c2ncc(-c3ccc4c(c3)COc3cc5c(ccc6nc([C@@H]7CC[C@H](C)N7C(=O)[C@@H](NC(=O)OC)C(C)C)[nH]c65)cc3-4)[nH]2)N(C(=O)[C@H](NC(=O)OC)c2ccccc2)C1 [Velpatasvir] |  |  | CC50 at 3 days (in vitro; CC50): > 10 µM |
| CC[C@H]1OC(=O)[C@H](C)[C@@H](O[C@H]2C[C@@](C)(OC)[C@@H](O)[C@H](C)O2)[C@H](C)[C@@H](O[C@@H]2O[C@H](C)C[C@H](N(C)C)[C@H]2O)[C@](C)(O)C[C@@H](C)CN(C)[C@H](C)[C@@H](O)[C@]1(C)O [Azithromycin] |  | > 100 |  |
| COc1cc2c(c(OC)c1OC)-c1ccc(OC)c(=O)cc1[C@@H](NC(C)=O)CC2 [Colchicine] |  |  | CC50 (in vitro): 0.63 µM |
| Ivermectin |  |  | IC50 (Mean +/- SD) (SARS-CoV-2): Not Active |
| CC1SCC(C(=O)NC(Cc2cnc[nH]2)C(=O)N2CCCC2C(N)=O)NC1=O.O=C(O)C(F)(F)F (stereo not shown) [Montirelin trifluoroacetate salt] |  |  | IC50 (Mean +/- SD) (SARS-CoV-2): Not Active |
| CC(C)(C)NC(=O)[C@@H]1C[C@@H]2CCCC[C@@H]2CN1C[C@@H](O)[C@H](Cc1ccccc1)NC(=O)[C@H](CC(N)=O)NC(=O)c1ccc2ccccc2n1 [Saquinavir] |  | > 28 |  |
| CC(C)CN(C[C@@H](OP(=O)(O)O)[C@H](Cc1ccccc1)NC(=O)O[C@H]1CCOC1)S(=O)(=O)c1ccc(N)cc1 [Fosamprenavir Calcium] |  | > 25 |  |
| CC(=O)c1c(C)c2cnc(Nc3ccc(N4CCNCC4)cn3)nc2n(C2CCCC2)c1=O [Palbociclib] |  | 2.7 |  |
